Assays:
[1] = biological target: T1, human TLR7 (hTLR7) (Homo sapiens, UniProt Q9NYK1); test: Human TLR7 agonist activity assay (HEK-Blue TLR7 SEAP reporter); format: cell-based; settings: HEK-Blue TLR7 cells, 18 h incubation, Quanti-Blue, OD 620 nm, some values average of multiple measurements
T1 construct: host or cells: HEK-Blue TLR7 cells (engineered human embryonic kidney cells)
T1 sequence (Q9NYK1 27-1049): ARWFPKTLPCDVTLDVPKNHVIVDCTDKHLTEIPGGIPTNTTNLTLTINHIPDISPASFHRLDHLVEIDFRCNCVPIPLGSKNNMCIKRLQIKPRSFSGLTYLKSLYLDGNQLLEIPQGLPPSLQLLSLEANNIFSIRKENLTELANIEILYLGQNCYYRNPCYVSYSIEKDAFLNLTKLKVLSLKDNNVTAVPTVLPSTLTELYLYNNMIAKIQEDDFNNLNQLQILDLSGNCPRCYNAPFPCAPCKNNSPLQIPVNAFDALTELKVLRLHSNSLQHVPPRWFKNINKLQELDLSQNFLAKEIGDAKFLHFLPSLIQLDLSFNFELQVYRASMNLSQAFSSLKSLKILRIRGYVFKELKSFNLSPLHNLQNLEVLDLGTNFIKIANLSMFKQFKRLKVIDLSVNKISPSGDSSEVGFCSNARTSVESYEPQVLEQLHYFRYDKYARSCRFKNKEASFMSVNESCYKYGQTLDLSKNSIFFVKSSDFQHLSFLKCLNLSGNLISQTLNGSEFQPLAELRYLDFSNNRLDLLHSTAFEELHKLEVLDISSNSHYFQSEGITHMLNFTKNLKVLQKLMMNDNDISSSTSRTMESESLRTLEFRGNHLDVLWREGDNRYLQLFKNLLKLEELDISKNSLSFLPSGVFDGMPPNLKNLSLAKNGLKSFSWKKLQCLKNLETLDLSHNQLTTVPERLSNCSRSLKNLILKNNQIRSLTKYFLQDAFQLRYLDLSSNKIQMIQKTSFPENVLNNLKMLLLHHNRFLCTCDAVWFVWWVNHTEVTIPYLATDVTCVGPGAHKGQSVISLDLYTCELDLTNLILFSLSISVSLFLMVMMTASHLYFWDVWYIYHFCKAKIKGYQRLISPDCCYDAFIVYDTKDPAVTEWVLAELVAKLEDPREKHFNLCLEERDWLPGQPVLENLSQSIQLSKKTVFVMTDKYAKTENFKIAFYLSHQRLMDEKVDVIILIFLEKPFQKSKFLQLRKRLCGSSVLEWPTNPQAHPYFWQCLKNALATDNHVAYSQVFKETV
Summary of the method: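 HEK-Blue TLR7 cells seeded 16-18 h, then exposed to compound for 18 h at 37 °C, 5% CO2. Secreted SEAP read with Quanti-Blue at OD 620 nm after 30 min. EC50 taken as concentration giving half-maximal response between baseline and maximum; some values averaged over repeats.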

[2] = biological target: T2, human TLR8 (hTLR8) (Homo sapiens, UniProt Q9NR97); test: Human TLR8 agonist activity assay (measured in a similar manner); format: cell-based; settings: HEK-Blue TLR cells, SEAP reporter, measured in a similar manner to TLR7; some values average of multiple measurements
T2 construct: expressed in transfected cells
T2 sequence (Q9NR97 27-1041): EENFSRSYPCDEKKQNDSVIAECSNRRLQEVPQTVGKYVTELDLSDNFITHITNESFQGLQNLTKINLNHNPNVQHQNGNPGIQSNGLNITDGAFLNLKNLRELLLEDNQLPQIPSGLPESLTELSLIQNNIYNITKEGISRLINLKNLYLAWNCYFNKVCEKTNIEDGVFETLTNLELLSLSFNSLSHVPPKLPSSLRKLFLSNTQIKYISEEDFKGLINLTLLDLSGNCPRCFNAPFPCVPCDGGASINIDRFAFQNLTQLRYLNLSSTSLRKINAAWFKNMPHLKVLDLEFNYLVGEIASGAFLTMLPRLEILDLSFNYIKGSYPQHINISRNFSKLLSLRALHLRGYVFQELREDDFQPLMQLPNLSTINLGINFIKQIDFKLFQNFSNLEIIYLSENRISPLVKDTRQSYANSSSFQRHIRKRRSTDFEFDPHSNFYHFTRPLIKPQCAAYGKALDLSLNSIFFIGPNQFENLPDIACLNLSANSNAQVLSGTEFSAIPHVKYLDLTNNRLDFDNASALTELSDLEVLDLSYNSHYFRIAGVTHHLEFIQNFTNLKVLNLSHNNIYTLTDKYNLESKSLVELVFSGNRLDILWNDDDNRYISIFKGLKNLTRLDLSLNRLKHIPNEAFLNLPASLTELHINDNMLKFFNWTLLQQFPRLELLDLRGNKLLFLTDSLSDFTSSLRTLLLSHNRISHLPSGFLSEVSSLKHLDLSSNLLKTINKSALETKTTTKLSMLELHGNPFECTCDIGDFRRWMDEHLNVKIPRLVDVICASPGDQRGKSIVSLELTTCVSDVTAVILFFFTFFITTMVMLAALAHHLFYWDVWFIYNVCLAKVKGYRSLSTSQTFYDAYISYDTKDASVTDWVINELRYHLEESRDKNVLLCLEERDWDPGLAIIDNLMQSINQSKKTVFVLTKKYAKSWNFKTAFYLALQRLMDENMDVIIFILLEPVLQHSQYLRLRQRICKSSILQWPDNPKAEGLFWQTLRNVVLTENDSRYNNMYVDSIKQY
Summary of the method: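 Compounds were added to HEK-Blue TLR8 reporter cells, pre-incubated 16-18 h, then treated 18 h at 37° C, 5% CO2. SEAP output was measured with Quanti-Blue (30 min) at OD 620 nm. Some values are averages of multiple measurements.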

Structure (SMILES)	EC50 [1]	EC50 [2]
CCCCN(CCO)c1nc(N)nc2cn(Cc3c(OC)cc(CNC(C)C)cc3OC)nc12 [Compound 146]	1820 nM	1770 nM
CCCCN(CCO)c1nc(N)nc2cn(Cc3c(F)cc(C4=CCNC4)cc3OC)nc12 [Compound 147]	1810 nM	2020 nM
CCCCN(CCO)c1nc(N)nc2cn(Cc3ccc(CNC(C)(C)C)c4c3OCCC4)nc12 [Compound 148]	1840 nM	462 nM
CCCCN(CCO)c1nc(N)nc2cn(Cc3c(F)cc(C4CCN(CCOC)CC4)cc3C#N)nc12 [Compound 149]	561 nM	1810 nM
CCCCN(CCO)c1nc(N)nc2cn(Cc3c(F)cc(C4CCN(C5CCOCC5)CC4)cc3C#N)nc12 [Compound 150]	1130 nM	2100 nM
CCCCN(CCO)c1nc(N)nc2cn(Cc3c(F)cc(C4CCN(C(C)C)CC4)cc3C#N)nc12 [Compound 151]	612 nM	1830 nM
CCCCN(CCO)c1nc(N)nc2cn(Cc3c(F)cc(N4CCC(NC(C)C)CC4)cc3OC)nc12 [Compound 152]	749 nM	1830 nM
CCCCN(CCO)c1nc(N)nc2cn(Cc3ccc(CNC4CCOC4(C)C)cc3OC)nc12 (centres unmarked) [Compound 153]	615 nM	306 nM
CCCCN(CCO)c1nc(N)nc2cn(Cc3ccc(CNC4(CO)CCOCC4)cc3OC)nc12 [Compound 154]	2140 nM	1100 nM
CCCCN(c1nc(N)nc2cn(Cc3c(F)cc(C4CCN(C5CC6(COC6)C5)CC4)cc3OC)nc12)C(C)CO (centres unmarked) [Compound 164]	196 nM	614 nM
CCCCN(CCO)c1nc(N)nc2cn(Cc3ccc(CNC4C[C@@H](C)O[C@@H](C)C4)cc3OC)nc12 (some centres unmarked) [Compound 166]	694 nM	529 nM
CCCCN(CCO)c1nc(N)nc2cn(Cc3ccc(CN[C@H]4CCCN(C)C4)c4cccnc34)nc12 [Compound 168]	587 nM	1100 nM
CCCCN(CCO)c1nc(N)nc2cn(Cc3ccc(CN[C@H]4CC[C@H](O)CC4)c4cccnc34)nc12 [Compound 169]	1090 nM	628 nM
COc1cc(CN[C@H]2C[C@H](OC)C2)ccc1Cn1cc2nc(N)nc(N(CCO)CCCCF)c2n1 [Compound 170]	1800 nM	2500 nM
CCCCN(CCO)c1nc(N)nc2cn(Cc3ccc(CN[C@H]4C[C@H](OC)C4)n4ncnc34)nc12 [Compound 174]	757 nM	1450 nM

Further lines, results first:

EC50 [1]	EC50 [2]	Structure (SMILES)
1870 nM	2060 nM	CCCCN(CCO)c1nc(N)nc2cn(Cc3c(OC)cc(CNC4CCOCC4)cc3OC)nc12 [Compound 144]
1440 nM	2020 nM	CCCCN(CCO)c1nc(N)nc2cn(Cc3c(OC)cc(CN[C@@H]4CCOC4)cc3OC)nc12 [Compound 145]
1550 nM	2170 nM	CCCCN(CCO)c1nc(N)nc2cn(Cc3ccc(CCNC4CCOCC4)cc3OC)nc12 [Compound 156]
1160 nM	460 nM	CCCCN(CCO)c1nc(N)nc2cn(Cc3ccc(CN[C@@H]4CCOC4)cc3)nc12 [Compound 157]
1160 nM	389 nM	CCCCN(CCO)c1nc(N)nc2cn(Cc3ccc(CNC4CCOCC4)cc3)nc12 [Compound 158]
658 nM	506 nM	CCCCN(CCO)c1nc(N)nc2cn(Cc3ccc(CNCCOC)cc3)nc12 [Compound 161]
1570 nM	805 nM	CCCCN(CCO)c1nc(N)nc2cn(Cc3ccc(CNC(C)C)cc3)nc12 [Compound 162]
1700 nM	1900 nM	CCCCN(CCO)c1nc(N)nc2cn(Cc3ccc(CNC4CCOCC4)n4ncnc34)nc12 [Compound 171]
870 nM	1350 nM	CCCCN(CCO)c1nc(N)nc2cn(Cc3ccc(CN[C@@H]4CCOC4)n4ncnc34)nc12 [Compound 172]
2630 nM	3130 nM	COc1cc(CN[C@@H]2CCOC2)ccc1Cn1cc2nc(N)nc(N(CCO)CCCCF)c2n1 [Compound 173]
